# Assay results published in patent publication US20050267166A1, “Continuous dosing regimen” (priority 2004, published 2005).
# Marks after values point to notes of the source that are not given here.
# Assays:
# [1] = tested on: intestinal tumors of Apc^Min (Min) mice; assay: Apc Min mice spontaneous intestinal tumorigenesis model; format: in vivo; conditions: orally once-a-day for 28 days at 150 mg/kg/day; vehicle controls 73.3
# From the text: Apc^Min (Min) mice are models for genetically inherited intestinal cancer. These mice carry a dominant germline mutation in the Apc tumor suppressor gene that predisposes them to the development of numerous (>50) tumors throughout the intestinal tract.
# The average tumor number for treated mice was 49.8 compared to 73.3 for vehicle controls. Drug treatment was initiated at an age when the tumors were well-established.
# [2] = tested on: NCI-H460 human non-small cell lung carcinoma; assay: NCI-H460 xenograft model; format: in vivo
# From the text: NCI-H460 is a human non-small cell lung carcinoma derived cell line. It is MDR negative, has wild type p53, and contains an oncogenic K-ras mutation.
# HT-29 colon carcinoma = assay: HT-29 colon flank xenograft model (staged); format: in vivo, human
# Description: (§1) Following inoculation of tumor cells, tumors were passaged three times in mice before using the fragments to generate single cell suspensions. Multiple animals were used as donors. Single cell suspensions were generated by homogenizing the minced tumor tissue in RPMI 1640 media. Cell suspensions were washed three times to remove debris and other foreign materials. Viable cells were counted by trypan blue exclusion technique using a hemocytometer. Mice were injected subcutaneously with 0.5 mL of the cell suspension containing 1×10^6 cells.
# On day 10, mice bearing established tumors were size matched and grouped at about 236 mm^3.
# Calu-6 lung carcinoma = assay: Calu-6 NSCL flank xenograft model (staged); format: in vivo, human
# Description: as §1
# On day 10, mice bearing established tumors were size matched and grouped at about 233 mm^3.
# HT-1376 bladder = assay: HT-1376 orthotopic tumor model; format: in vivo, human; conditions: d 1-5, 11-15
# H-81 gastric cancer = assay: human tumor xenograft in nude mice, H-81; format: in vivo; conditions: Q5D × 5, 300 mg/kg/day
# H-111 gastric cancer = assay: human tumor xenograft in nude mice, H-111; format: in vivo; conditions: Q1D × 19, 80 mg/kg/day
# SC-2 gastric cancer = assay: human tumor xenograft in nude mice, SC-2; format: in vivo; conditions: Q1D × 19, 120 mg/kg/day
# SC-6 gastric cancer = assay: human tumor xenograft in nude mice, SC-6; format: in vivo; conditions: Q5D × 5, 500 mg/kg/day
# [3] = tested on: COLO320DM colorectal cancer; assay: human tumor xenograft in nude mice, COLO320DM; format: in vivo; conditions: Q1D × 19, 120 mg/kg/day
# WiDr colorectal cancer = assay: human tumor xenograft in nude mice, WiDr; format: in vivo; conditions: Q1D × 20, 100 mg/kg/day
# LC-376 lung cancer = assay: human tumor xenograft in nude mice, LC-376; format: in vivo; conditions: Q5D × 5, 300 mg/kg/day
# LC-6 lung cancer = assay: human tumor xenograft in nude mice, LC-6; format: in vivo; conditions: Q5D × 5, 450 mg/kg/day
# LC-11 lung cancer = assay: human tumor xenograft in nude mice, LC-11; format: in vivo; conditions: Q1D × 8, 150 mg/kg/day
# H-31 breast cancer = assay: human tumor xenograft in nude mice, H-31; format: in vivo; conditions: Q1D × 19, 80 mg/kg/day
# MX-1 breast cancer = assay: human tumor xenograft in nude mice, MX-1; format: in vivo; conditions: Q5D × 5, 450 mg/kg/day
# KB oral cancer = assay: human tumor xenograft in nude mice, KB; format: in vivo; conditions: Q1D × 20, 100 mg/kg/day
# [4] = pharmacokinetics in cancer subjects, single dose and 5-day repeated dose; format: in vivo, human
# Description: (2-((4-hydroxyphenyl)amino)pyrid-3-yl)-4-methoxybenzenesulfonamide was evaluated in 57 cancer subjects in single dose (16 subjects) and 5-day repeated dose regimens (41 subjects). The doses administered in the single dose segment were 80 to 480 mg/m^2/day. In the 5-day repeated dose regimen (2-((4-hydroxyphenyl)amino)pyrid-3-yl)-4-methoxybenzenesulfonamide was given at 30 to 240 mg/m^2/day for a single cycle. […] Adverse drug reactions from the single dose and 5-day repeated dose segments included nausea and vomiting, diarrhea, epigastric pain, ileus and evidence of peripheral neuropathy. For the single dose segment, the dose limiting toxicity (DLT) was Grade 3 peripheral neuropathy in 1 of 5 subjects at 480 mg/m^2/day. In the 5-day repeated dose regimen the dose limiting toxicities were Grade 3 peripheral neuropathy in 1 of 4 subjects at 210 mg/m^2/day and Grade 4 intestinal paralysis in 1 of 4 subjects at 210 mg/m^2/day and in 1 of 6 subjects at 240 mg/m^2/day.
# [5] = MTD and safety in the 7-day and 21-day QD regimens in patients; format: in vivo
# Description: In the 7-day QD regimen, the 250 mg QD dose has been determined to be the MTD, as dose limiting toxicities of peripheral neuropathy/ileus were reported in 2 of 6 subjects at the 300 mg QD dose.
# The tumor types studied were colorectal (23), sarcoma (5), mesothelioma (3), salivary gland (2), endometrial (2), unknown (2), hepatoma (1), melanoma (1), renal cell (1), lung (1), ovary (1), and granulosa cell (1). […] Doses were escalated by 50 mg/day (25 mg twice per day). Three patients were initially treated at each dose level. […] If additional patients experienced dose-limiting toxicity, on occasion the dose level was expanded to nine patients to further assess tolerability. Response assessment was performed every two cycles.
# [6] = tolerability of continuous 21 day once per day dosing in xenograft mice; format: in vivo, nude mice; conditions: 50 mg/kg/day
# [7] = tested on: M5076 transplantable murine reticulum cell sarcoma
# in vivo = conditions: mouse, po
# [8] = oral 75 mg/kg/d QD, d 10-14, 20-24
# [9] = oral 100 mg/kg/d QD, d 10-14, 20-24
# [10] = 150 mg/kg orally once a day for 5 days
smiles,measurement,setting,value
"COc1ccc(S(=O)(=O)Nc2cccnc2Nc2ccc(O)cc2)cc1 [ABT-751, N-(2-((4-hydroxyphenyl)amino)pyrid-3-yl)-4-methoxybenzenesulfonamide]",average tumor number,[1],49.8
same,"T/C, mean tumor volume",[2]; day 13,58%
same,ILS (delay in tumor growth),[2]; in vivo,32%
same,efficacy in the NCI-H460 xenograft model,[2]; in words,good efficacy
same,antitumor activity as single agent,"HT-29 colon carcinoma; 100 and 75 mg/kg/day, (5 days on/5 days off)×2",significant antitumor activity
same,response in combination with 5-fluorouracil,"HT-29 colon carcinoma; in combination with 5-fluorouracil at 30 mg/kg/day, higher doses",additive responses
same,% T/C,"HT-29 colon carcinoma; oral 50 mg/kg/d QD, d 1-21",55%
same,% ILS,HT-29 colon carcinoma; [8],50%
same,% T/C,HT-29 colon carcinoma; [8],43%
same,% T/C,HT-29 colon carcinoma; [9],28%
same,antitumor activity as single agent,"Calu-6 lung carcinoma; 100 and 75 mg/kg/day, (5 day on/5 day off)×2",significant antitumor activity
same,response in combination with cisplatin,Calu-6 lung carcinoma; in combination with cisplatin,greater than additive responses
same,% T/C,"Calu-6 lung carcinoma; oral 50 mg/kg/d QD, d 1-21",54%
same,% ILS,Calu-6 lung carcinoma; [8],58%
same,% T/C,Calu-6 lung carcinoma; [8],50%
same,% T/C,Calu-6 lung carcinoma; [9],37%
same,% T/C,HT-1376 bladder; oral 100 mg/kg/d QD,63%
same,% T/C,HT-1376 bladder; oral 100 mg/kg/d b.i.d.,86^e %
same,T/C (%),H-81 gastric cancer,40%
same,T/C (%),H-111 gastric cancer,36%
same,T/C (%),SC-2 gastric cancer,28%
same,T/C (%),SC-6 gastric cancer,22%
same,T/C (%),[3],42%
same,T/C (%),WiDr colorectal cancer,22%
same,T/C (%),LC-376 lung cancer,18%
same,T/C (%),LC-6 lung cancer,31%
same,T/C (%),LC-11 lung cancer,93%
same,T/C (%),H-31 breast cancer,13%
same,T/C (%),MX-1 breast cancer,21%
same,T/C (%),KB oral cancer,15%
same,half-life,"[4]; human, plasma, cancer subjects, single dose and 5-day repeated dose, read-out: elimination half-life",4 to 16 h
same,AUC versus dose,[4]; range of 30 to 480 mg/m^2/day,increased proportionally with dose
same,MTD,[5]; 7-day QD regimen,250 mg
same,MTD,[5]; QD regimen given for 21 days,200 mg
same,"dose limiting toxicities of fatigue, anorexia and suspect small bowel obstruction, subjects affected","[5]; human, in vivo",⅔
same,"myelosuppression, renal or hepatic toxicity","[5]; human, in vivo",no significant
same,"dose limiting toxicities of peripheral neuropathy/ileus, subjects affected","[5]; human, in vivo, 7 days",2 of 6
same,adverse side effects,[6],essentially without adverse side effects
same,ILS (percent increase in life span),[7]; [10],42%
same,T/C (tumor mass of test group divided by tumor mass of control group),[7]; [10],13%
same,antitumor activity in the M5076 model,[7]; in words,significant antitumor activity
same,MTD,in vivo,~150 mg/kg
